Laboratory results taken from PMC6494957 (Frontiers in Microbiology, 2019).
Like-named read-outs stand apart in the source and are kept apart here.

Legend:
A. baumannii ATCC 12457 = test: microbe, parasite or virus in culture; conditions: for MIC: Acinetobacter baumannii
Description: (§1) The MIC for ampicillin or gentamicin against each isolate was determined for each test to serve as an internal quality control. The MICs of isolates were determined by visual reading and using an EnSpire Multimode Plate Reader 2300 atA600nm.
(§2) Briefly, antimicrobial stock solutions for robenidine and PMBN were prepared at a concentration of 12.8 mg/ml in DMSO. […] A 1 μl aliquot of the first compound from each combination was dispensed along the abscissa (from row A to G) of the 96-well microplate, while the second compound was dispensed along the ordinate (from column 12 to column 3) using an electronic multichannel pipette followed by 89 μl of LB broth. Each well of the plate was inoculated with an aliquot of 10 μl bacterial suspension at a concentration of 1-5 × 10^6 colony forming units (CFU) per ml. Subsequently, the plate was incubated at 37°C for 24 h. The fractional inhibitory concentration index (FICI) described the results of the combinations, and was calculated utilizing the following formula:
(§3) DRI = MIC of drug alone/MIC of drug in combination

E. coli ATCC 11229 = test: microbe, parasite or virus in culture; conditions: for MIC: Escherichia coli
Description: as §1, §2, §3

A. baumannii ATCC 19606 = test: microbe, parasite or virus in culture; conditions: for MIC: Acinetobacter baumannii
Description: as §1, §2, §3

P. putida ATCC 17428 = test: microbe, parasite or virus in culture; conditions: for MIC: Pseudomonas putida
Description: as §1, §2, §3

P. aeruginosa ATCC 27853 = test: microbe, parasite or virus in culture; conditions: for MIC: Pseudomonas aeruginosa
Description: as §1, §2, §3

E. coli ATCC 25922 = test: microbe, parasite or virus in culture; conditions: for MIC: Escherichia coli
Description: as §1, §2, §3

K. pneumoniae ATCC 13883 = test: microbe, parasite or virus in culture; conditions: for MIC: Klebsiella pneumoniae
Description: as §1, §2, §3

P. mirabilis ATCC 43071 = test: microbe, parasite or virus in culture; conditions: for MIC: Proteus mirabilis
Description: as §1, §2, §3

[1] = tested on: A. calcoaceticus (human clinical isolate); test: microbe, parasite or virus in culture; conditions: for MIC: Acinetobacter calcoaceticus
Description: as §1, §2, §3

[2] = tested on: preformed biofilms of P. aeruginosa PA01 and clinical isolates of P. aeruginosa; test: Antibiofilm susceptibility (MBEC device) and biofilm checkerboard; format: cell-based, Pseudomonas aeruginosa; conditions: Gram-negative (P. aeruginosa) biofilms; vs growth control
Description: Briefly, biofilms of P. aeruginosa PA01, two clinical isolates of P. aeruginosa isolates and two clinical isolates of S. pseudintermedius were formed by inoculating 150 μl of 10^7 CFU/ml of each bacterial suspension in the MBEC^TM device. The inoculated device was aerobically incubated on an orbital shaker at 37°C (OM11, Ratek Instruments Pty Ltd., Australia) for 24 h to produce equivalent (Uniform) biofilms on all pegs. […] Following antimicrobial challenge, the biofilms were rinsed twice with phosphate buffered saline (pH = 7) and disrupted via sonication (Soniclean, Model 160TD, Australia) for 10 min into the recovery medium. Viable cell counts were determined for recovered cells (colony-forming units per peg) after preparing a serial dilution and plating 10 μl in duplicates of each dilution onto plate count agar. Viable counts were then expressed as a percentage of the mean CFU of growth controls. MBEC was defined as the lowest concentration of antimicrobial agent that eradicates the biofilms recovered from the antimicrobial challenge.
Briefly, the MBEC^TM High-throughput assay system (MBEC^TM BioProducts, Innovotech, Canada) was used for the preparation of Gram-positive and Gram-negative biofilm producing bacteria as described above for antibiofilm susceptibility testing. […] Subsequently, the plate was incubated at 37°C for 24 h.

O=C(O)CN(CCN(CC(=O)O)CC(=O)O)CC(=O)O [EDTA, ethylenediaminetetraacetic acid]
DRI EDTA:ROB (A. baumannii ATCC 12457; A. baumannii ATCC 12457, DRI of the labelled component): 2 | MIC in combination EDTA:ROB (mM in parentheses) (A. baumannii ATCC 12457; A. baumannii ATCC 12457, EDTA component): 0.25 mM | MIC in combination EDTA:ROB (A. baumannii ATCC 12457; A. baumannii ATCC 12457, concentration of the labelled component): 95 µg/mL | MIC (A. baumannii ATCC 12457; ATCC12457, read-out: MIC, single drug): 190 µg/mL | MIC (A. baumannii ATCC 12457; ATCC12457, read-out: MIC, single drug (mM in parentheses)): 0.5 mM | DRI EDTA:ROB (E. coli ATCC 11229; E. coli ATCC 11229, DRI of the labelled component): 4 | MIC in combination EDTA:ROB (mM in parentheses) (E. coli ATCC 11229; E. coli ATCC 11229, EDTA component): 0.6 mM | MIC in combination EDTA:ROB (E. coli ATCC 11229; E. coli ATCC 11229, concentration of the labelled component): 228 µg/mL | MIC (E. coli ATCC 11229; ATCC11229, read-out: MIC, single drug): 950 µg/mL | MIC (E. coli ATCC 11229; ATCC11229, read-out: MIC, single drug (mM in parentheses)): 2.5 mM | DRI EDTA:ROB (A. baumannii ATCC 19606; A. baumannii ATCC 19606, DRI of the labelled component): 2 | MIC in combination EDTA:ROB (mM in parentheses) (A. baumannii ATCC 19606; A. baumannii ATCC 19606, EDTA component): 0.5 mM | MIC in combination EDTA:ROB (A. baumannii ATCC 19606; A. baumannii ATCC 19606, concentration of the labelled component): 190 µg/mL | MIC (A. baumannii ATCC 19606; ATCC19606, read-out: MIC, single drug): 380 µg/mL | MIC (A. baumannii ATCC 19606; ATCC19606, read-out: MIC, single drug (mM in parentheses)): 1 mM | DRI EDTA:ROB (P. putida ATCC 17428; P. putida ATCC 17428, DRI of the labelled component): 2 | MIC in combination EDTA:ROB (mM in parentheses) (P. putida ATCC 17428; P. putida ATCC 17428, EDTA component): 2.5 mM | MIC in combination EDTA:ROB (P. putida ATCC 17428; P. putida ATCC 17428, concentration of the labelled component): 950 µg/mL | MIC (P. putida ATCC 17428; ATCC17428, read-out: MIC, single drug): 1900 µg/mL | MIC (P. putida ATCC 17428; ATCC17428, read-out: MIC, single drug (mM in parentheses)): 5 mM | DRI EDTA:ROB (P. aeruginosa ATCC 27853; P. aeruginosa ATCC 27853, DRI of the labelled component): 2 | MIC in combination EDTA:ROB (mM in parentheses) (P. aeruginosa ATCC 27853; P. aeruginosa ATCC 27853, EDTA component): 5 mM | MIC in combination EDTA:ROB (P. aeruginosa ATCC 27853; P. aeruginosa ATCC 27853, concentration of the labelled component): 1900 µg/mL | MIC (P. aeruginosa ATCC 27853; ATCC27853, read-out: MIC, single drug): 3800 µg/mL | MIC (P. aeruginosa ATCC 27853; ATCC27853, read-out: MIC, single drug (mM in parentheses)): 10 mM | DRI EDTA:ROB (E. coli ATCC 25922; E. coli ATCC 25922, DRI of the labelled component): 4 | MIC in combination EDTA:ROB (mM in parentheses) (E. coli ATCC 25922; E. coli ATCC 25922, EDTA component): 2.5 mM | MIC in combination EDTA:ROB (E. coli ATCC 25922; E. coli ATCC 25922, concentration of the labelled component): 950 µg/mL | MIC (E. coli ATCC 25922; ATCC25922, read-out: MIC, single drug): 3800 µg/mL | MIC (E. coli ATCC 25922; ATCC25922, read-out: MIC, single drug (mM in parentheses)): 10 mM | DRI EDTA:ROB (K. pneumoniae ATCC 13883; K. pneumoniae ATCC 13883, DRI of the labelled component): 3 | MIC in combination EDTA:ROB (mM in parentheses) (K. pneumoniae ATCC 13883; K. pneumoniae ATCC 13883, EDTA component): 10 mM | MIC in combination EDTA:ROB (K. pneumoniae ATCC 13883; K. pneumoniae ATCC 13883, concentration of the labelled component): 3800 µg/mL | MIC (K. pneumoniae ATCC 13883; ATCC13883, read-out: MIC, single drug): 11400 µg/mL | MIC (K. pneumoniae ATCC 13883; ATCC13883, read-out: MIC, single drug (mM in parentheses)): 30 mM | DRI EDTA:ROB (P. mirabilis ATCC 43071; P. mirabilis ATCC 43071, DRI of the labelled component): 1 | MIC in combination EDTA:ROB (mM in parentheses) (P. mirabilis ATCC 43071; P. mirabilis ATCC 43071, EDTA component): 0.6 mM | MIC in combination EDTA:ROB (P. mirabilis ATCC 43071; P. mirabilis ATCC 43071, concentration of the labelled component): 228 µg/mL | MIC (P. mirabilis ATCC 43071; ATCC43071, read-out: MIC, single drug): 228 µg/mL | MIC (P. mirabilis ATCC 43071; ATCC43071, read-out: MIC, single drug (mM in parentheses)): 0.6 mM | DRI EDTA:ROB ([1]; A. calcoaceticus human clinical isolate, DRI of the labelled component): 1 | MIC in combination EDTA:ROB (mM in parentheses) ([1]; A. calcoaceticus human clinical isolate, EDTA component): 0.6 mM | MIC in combination EDTA:ROB ([1]; A. calcoaceticus human clinical isolate, concentration of the labelled component): 228 µg/mL | MIC ([1]; read-out: MIC, single drug): 228 µg/mL | MIC ([1]; read-out: MIC, single drug (mM in parentheses)): 0.6 mM | concentration with significant disruption of 24 h preformed biofilms [2]: 1 mM
